Results as given in patent publication US20160310607A1, “CELL TRANSPORT” (CUPID PEPTIDE COMPANY LIMITED, priority 2013, published 2016).
Entries after “also recorded” stand apart in the source; their conditions may differ. No end group written: not given here.

Assays:
[1] = test system: Dictyostelium discoideum amoeba cells; assay: Permeation of FITC-labelled peptides into cultured Dictyostelium cells (fluorescence microscopy); format: cell-based; conditions: FITC-labelled peptide, 10 micromolar, 1 hour
Experimental: Peptides were labelled with Fluorescein isothiocyanate (FITC) using a FITC labeling kit as per instructions (Pierce, UK). When added to cell cultures the labeled peptides were visualized using a fluorescent microscope by exciting the FITC with a 488 nm spectral line, argon-ion laser (Excitation wavelength of 494 nm and an Emission wavelength of 518 nm).
AX2 wild type Dictyostelium cells were grown on SM agar plates seeded with Aerobacter aerogenes bacteria (also known as Klebsiella aerogenes) as a food source.
Cupid A ([…]) and Cupid B ([…]) were chemically synthesized labelled with FITC at the amino terminal. The peptides were added to cultured eukaryotic cells of Dictyostelium discoideum amoeba for varying amounts of time up to 2 hours. Cells were then washed and prepared for examination under a fluorescent microscope (FIG. 1). The time courses of permeation were compared to the class 3 CPP, the Antennapedia peptide, pANT which was also labelled with FITC in chemical synthesis (FIG. 2).

[2] = test system: Dictyostelium cAMP-dependent Protein Kinase (DdPKA); assay: PKA-dependent aggregation of starved Dictyostelium cultures; format: cell-based, Dictyostelium discoideum; conditions: 10 micromolar peptide
Experimental: FIG. 6. Cupid can transport small molecule cargo into cells. Starved Dictyostelium cultures were treated with no peptide (A), cupid B peptide (B), PKI peptide (C) and Cupid B-PKI peptide (D) and analysed for aggregation.
Upon starvation Dictyostelium initiates a developmental program leading to the aggregation of free-living amoebae. Genetic research has uncovered the crucial role that cyclic adenosine monophosphate (cAMP) plays in orchestrating as an extracellular chemoattractant in the initial aggregation process through Dictyostelium cAMP-dependent Protein Kinase (DdPKA). DdPKA can be inhibited by PKI, a 20 amino acid peptide sequence derived from an inhibitor of PKA, by PKI binding directly to the catalytic unit of PKA.
By creating a Cupid B-PKI fusion protein we aimed to establish that it prevents starving Dictyostelium cells from aggregating in vivo.

In the case of “HHHHHHRRVQIWFQNKRAKVKRIDTTYADRASGRTGRRNAIHD (also: FITC label, site not given here) [Cupid B-PKI, Cupid B-PKI fusion protein with 6x Histidine, made recombinantly in E. coli; FITC-labelled for microscopy]”, the “cell permeation (fluorescence microscopy)” value [1] is reported as “cell permeable”, the “effect on aggregation of starved Dictyostelium cultures” value (“effect on aggregation” for short) [2] is reported as “completely attenuating” and the “effect on aggregation” value ([2]; listed as Cupid-PKI) is reported as “failed to aggregate”.
In the case of “RRVQIWFQNKRAKVKR [Cupid B, cell penetrating peptide from the genome of Dictyostelium discoideum]”, the “effect on aggregation” value [2] is reported as “neither the Cupid B peptide nor the PKI peptide alone have any effect on aggregation; also recorded: cells aggregated into tight masses”.
With “TTYADRASGRTGRRNAND [PKI, reference compound]” the “effect on aggregation” value [2] was “neither the Cupid B peptide nor the PKI peptide alone have any effect on aggregation; also recorded: cells aggregated into tight masses”.
